Experimental data reported in patent publication US11857601B2, “Pharmaceutical composition for cancer treatment comprising fusion protein including IL-2 protein and CD80 protein and anticancer drug” (GI INNOVATION, INC., priority 2020, dated 2024).

Tests used:
[1] = test system: CD8+ T cells and NK cells; assay: Proliferation of CD8+ T cells and NK cells in mouse spleen; assay type: in vivo, C57BL/6 mice; settings: 40.5 μg i.p., spleen five days after injection; compared with GI101w
Experimental: 7-week-old C57BL/6 mice purchased from Orient Bio (Korea) were divided into 3 groups, each group including 3 mice, and PBS, GI101, or GI101w was injected intraperitoneally thereinto. Here, GI101 and GI101w were respectively prepared to be at 40.5 μg in 200 μl of PBS, and injected intraperitoneally thereinto. Five days after the injection, the spleens were removed from the mice of each group. The cells were isolated therefrom, and the total number of cells was measured using a hematocytometer. Splenocytes were examined for proportions of CD8+ T cells and NK cells therein, with FACS analysis using staining with APC-CD3ε antibody (Biolegend; 145-2C11), PE-NK1.1 antibody (Biolegend; PK136), and Pacific blue-CD8α antibody (BD; 53-6.7). As such, the numbers of CD8+ T cells and NK cells present in the spleen were calculated.

[2] = target: T1, CTLA-4 expressed on effector T cells (Homo sapiens, UniProt P16410); assay: CTLA-4 blockade bioassay; assay type: cell-based; settings: CTLA-4 effector cells + aAPC/Raji cells, 16 hours
T1 construct: host or cells: CTLA-4 effector cells of the kit, co-cultured with aAPC/Raji cells
Experimental: An experiment was performed using a CTLA-4 blockade bioassay kit (Promega cat No. JA4005). The experiment is briefly described as follows. CTLA-4 effector cells kept in liquid nitrogen were thawed in a 37° C. constant temperature water bath for 3 minutes, and 0.8 ml of CTLA-4 effector cells were mixed well with 3.2 ml of pre-warmed assay buffer (90% RPMI+10% fetal bovine serum). Then, the mixture was added to a 96-well white cell culture plate (SPL, cat No. 30196) at 25 μl per well. Then, 25 μl of GI101 at various concentrations was added thereto. For a negative control, 25 μl of assay buffer was added thereto. Then, the 96-well white cell culture plate was covered and placed at room temperature until aAPC/Raji cells were prepared.
aAPC/Raji cells kept in liquid nitrogen were thawed in a 37° C. constant temperature water bath for 3 minutes, and 0.8 ml of aAPC/Raji cells were mixed well with 3.2 ml of pre-warmed assay buffer. Then, 25 μl of the mixture was added to the plate at per well, and reaction was allowed to proceed in a 5% CO2 incubator at 37° C. for 16 hours. […] Reaction was allowed to proceed at room temperature for 10 minutes, and then luminescence was measured with Cytation 3 (BioTek instruments, Winooski, VT, USA). […]

HCT116 cells = assay: Cancer cell killing, GI-101 and Cetuximab, HCT116 with NK cells; assay type: cell-based, human; settings: GI-101 100 nM, Cetuximab 68.6 nM, 24 hours
From the text: HCT116 cells were purchased from the Korea cell line bank and cultured in McCoy's 5A medium (ATCC) containing 10% FBS (Gibco) and 1% antibiotic/antifungal agent (Gibco). For use in cancer cell killing test, the cells were harvested using trypsin (Gibco), and then suspended in McCoy's 5A medium, and then dead cells and debris were removed using Ficoll (GE Healthcare Life Sciences) solution. The cells suspended in McCoy's 5A medium were carefully layered on ficoll solution. The cell layer with a low specific gravity formed by centrifuging at room temperature at 350×g for 20 minutes was collected with a pipette, washed with PBS (Gibco), and then centrifuged at room temperature at 350×g for 5 minutes. The separated cell layer was made into a suspension of 2×10^5 cells/mL with FBS-free RPMI1640 medium. […]
In order to identify the effect of killing the cells, a CytoTox Green reagent ([…] ™ CytoTox Green, Satorius) that binds to the DNA of cells to be killed was prepared in 1 μl per 1 mL of RPMI1640 medium containing 5% human AB serum (Sigma). The prepared medium was used for dilution of the test substance, and the effect of killing the cells could be quantitatively identified by staining the cells to be killed when the test substance was co-cultured with cancer cell lines and PBMCs. […]

MC38 = assay: mGI101 and anti-PD-1 antibody in MC38 allotransplanted tumor model; assay type: in vivo, C57BL/6 mice
Experimental: Rodent-derived colorectal cancer cells, MC38, were purchased from Kerafast (USA) and used for the test. MC38 cells were cultured in RPMI1640 medium (Gibco) containing 10% fetal bovine serum (Gibco) and 1% antibiotic/antifungal agent (Gibco). The cultured cells were harvested using trypsin and then suspended in PBS. In order to establish an allotransplanted tumor model, 1×10^6 MC38 cells were subcutaneously injected into the right flank of C57BL/6 female mice (7-week-old).
The mice were randomly assigned based on tumor volume (30 mm^3), each group including 5 mice. The tumor grafts were identified about day 2 after cell inoculation.
Clinical symptoms such as a disease and a behavioral change were observed once a day during the test period, and deceased animals were identified. At the end of the test period, the animals were sacrificed. The size of the MC38 solid cancer was measured using a tumor 3D scanner (TM900, Peria, Belgium). […] The anti-tumor efficacy was evaluated as compared with the vehicle control. All statistical calculations were performed using Prism 8.0 (Graph Pad Software Inc, USA). The comparison of tumor volume measurements was made through one-way analysis of variance (at the end of this test) followed by Bonferroni's multiple comparison test. A p value of less than 0.05 was considered significant.

Renca cells = assay: mGI-101 and Lenvatinib in Renca allotransplanted tumor model; assay type: in vivo, BALB/c mice
Experimental: Renca cells were purchased from ATCC (USA) and cultured in RPMI1640 medium (Gibco) containing 10% FBS (Gibco) and 1% antibiotic/antifungal agent (Gibco). The cultured cells were harvested using trypsin (Gibco) and then suspended in PBS. In order to establish an allotransplanted tumor model, 5×10^6 Renca cells were subcutaneously injected into the back of BALB/c female mice (8-week-old).
A certain period of time after cell inoculation of the tumor grafts of the mice, the tumor volume was measured for animals with no abnormalities in the health condition of the animals, and the mice were randomly selected and assigned, each group including 10 mice.
The death of the mouse, the type of general symptoms, the date of onset, and the severity of symptoms were observed once a day during the test period, and recorded for each subject.
The tumor volume before administration of each subject was set as the value measured at the time of grouping, and the anti-tumor efficacy was evaluated as compared with the vehicle control.
All statistical calculations were performed using Prism 8.0 (Graph Pad Software Inc, USA). The comparison of tumor volume measurements was made through two-way analysis of variance followed by Tukey's multiple comparison test. A p value of less than 0.05 was considered significant.

[3] = mGI-101 twice a week (BIW), Lenvatinib daily, 10 mice per group

T1 sequence (P16410 36-223): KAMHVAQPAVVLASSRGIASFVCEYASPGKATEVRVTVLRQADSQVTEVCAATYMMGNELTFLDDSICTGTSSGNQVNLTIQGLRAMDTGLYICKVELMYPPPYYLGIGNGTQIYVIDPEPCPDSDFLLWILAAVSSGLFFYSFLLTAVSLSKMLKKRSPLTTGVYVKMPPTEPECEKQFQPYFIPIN

| Substance | proliferation of CD8+ T cells and NK cells in vivo [1] | function of T cells (luminescence) [2] | level of killing cancer cells (HCT116 cells) | anticancer effect / anti-tumor efficacy (MC38; 16 days, mGI101 6 mpk alone, anti-PD-1 5 mpk, combination mGI101 0.6 mpk + anti-PD-1 5 mpk, vs control) | individual tumor sizes (MC38; mGI101 6 mpk alone (compared with anti-PD-1 group), anti-PD-1 5 mpk, combination 0.6 mpk + 5 mpk) | health state of test animals after administration (MC38; mGI101 alone and in combination with anti-PD-1 antibody, i.p.) | number of mice with tumor growth inhibition rate of 30% or more (Renca cells; mGI-101 alone once a week) | number of mice with tumor growth inhibition rate of 50% or more (Renca cells; mGI-101 alone once a week) | number of mice with tumor growth inhibition rate of 80% or more (Renca cells; mGI-101 alone once a week) | number of mice with tumor growth inhibition rate of 30% or more (Renca cells; [3]) | number of mice with tumor growth inhibition rate of 50% or more (Renca cells; [3]) | number of mice with tumor growth inhibition rate of 80% or more (Renca cells; [3]) |
| --- | --- | --- | --- | --- | --- | --- | --- | --- | --- | --- | --- | --- |
| GI101: fusion protein: human CD80 fragment, Ig hinge, Fc domain, linker, IL-2 variant (2M) (R38A, F42A); SEQ ID NO: 9 | activated proliferation | activats the function of T cells rather than inhibiting the same | high level of killing cancer cells |  |  |  |  |  |  |  |  |  |
| mGI101: fusion protein: mouse CD80, Ig hinge, Fc domain, linker, IL-2 variant (2M) (R38A, F42A); SEQ ID NO: 15 |  |  |  | anticancer effect was also shown | more excellent tumor growth inhibitory effect | healthy state without signs of pathological abnormalities | 5 mice | 2 mice | 1 mice | 3 mice | 1 mice | no mouse |
